According to PubChem BioAssay AID248 (DTP/NCI, 2004):
Where “and” joins values, the source holds several entries; their conditions need not be identical. Equal entries are not always repeated. Inconclusive results and toxic doses are left out. No stated cut-off is given here; in the data, active means T/C of 150% or more; inactive means T/C below 125%.

System: L1210 leukemia ip in BDF1 mice, survival T/C
Assay: NCI In Vivo Anticancer Drug Screen. Data for tumor model L1210 Leukemia (intraperitoneal) in B6D2F1 (BDF1) mice
Details: endpoint: mean survival time, higher = longer survival
In short: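 Survival endpoint. Drug-treated group vs vehicle group, expressed as T divided by C. Tumor passaged by transplantation.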

[1] = dose: 100.0 mg/kg/injection, schedule: Q01DX001 (ip), vehicle: saline
[2] = dose: 200.0 mg/kg/injection, schedule: Q01DX001 (ip), vehicle: saline
[3] = dose: 400.0 mg/kg/injection, schedule: Q01DX001 (ip), vehicle: saline
[4] = dose: 12.5 mg/kg/injection, schedule: Q04DX003 (ip), vehicle: Klucel (hydroxypropylcellulose) (HPC)
[5] = dose: 25.0 mg/kg/injection, schedule: Q04DX003 (ip), vehicle: Klucel (hydroxypropylcellulose) (HPC)
[6] = dose: 75.0 mg/kg/injection, schedule: Q01DX001 (ip), vehicle: saline

Measured: T/C

C1CSP(SCCSP2SCCS2)S1
inactive: dose: 25.0 mg/kg/injection, schedule: Q01DX009 (ip), vehicle: carboxymethylcellulose (CMC) 87 % of control and 88 % of control | dose: 25.0 mg/kg/injection, schedule: Q04DX002 (ip), vehicle: carboxymethylcellulose (CMC) 95 % of control and 90 % of control | dose: 50.0 mg/kg/injection, schedule: Q01DX009 (ip), vehicle: carboxymethylcellulose (CMC) 95 % of control | dose: 50.0 mg/kg/injection, schedule: Q04DX002 (ip), vehicle: carboxymethylcellulose (CMC) 97 % of control and 90 % of control | dose: 100.0 mg/kg/injection, schedule: Q01DX009 (ip), vehicle: carboxymethylcellulose (CMC) 95 % of control and 91 % of control | dose: 200.0 mg/kg/injection, schedule: Q04DX002 (ip), vehicle: carboxymethylcellulose (CMC) 94 % of control

COc1ccc2c(c1)CCC1C2CCC2C(O)CCC(=O)C21 (stereo not given)
inactive: dose: 50.0 mg/kg/injection, schedule: Q01DX001 (ip), vehicle: Klucel (hydroxypropylcellulose) (HPC) 102 % of control | dose: 100.0 mg/kg/injection, schedule: Q01DX001 (ip), vehicle: Klucel (hydroxypropylcellulose) (HPC) 102 % of control | dose: 200.0 mg/kg/injection, schedule: Q01DX001 (ip), vehicle: Klucel (hydroxypropylcellulose) (HPC) 98 % of control

COc1cc(Br)c(CC2c3cc(OC)c(OC)cc3CC[N+]2(C)C)cc1OC (stereo not given)
inactive: dose: 100.0 mg/kg/injection, schedule: Q01DX001 (ip), vehicle: water 100 % of control | dose: 100.0 mg/kg/injection, schedule: Q01DX009 (ip), vehicle: water 101 % of control | dose: 100.0 mg/kg/injection, schedule: Q04DX003 (ip), vehicle: water 100 % of control | dose: 200.0 mg/kg/injection, schedule: Q01DX001 (ip), vehicle: water 102 % of control | dose: 200.0 mg/kg/injection, schedule: Q01DX009 (ip), vehicle: water 87 % of control | dose: 200.0 mg/kg/injection, schedule: Q04DX003 (ip), vehicle: water 97 % of control | dose: 400.0 mg/kg/injection, schedule: Q01DX001 (ip), vehicle: water 100 % of control | dose: 400.0 mg/kg/injection, schedule: Q04DX003 (ip), vehicle: water 91 % of control

CCN=C(NC(=S)Nc1ccc(Cl)cc1)SCC
inactive: dose: 100.0 mg/kg/injection, schedule: Q04DX002 (ip), vehicle: saline with Tween-80 98 % of control | dose: 200.0 mg/kg/injection, schedule: Q04DX002 (ip), vehicle: saline with Tween-80 98 % of control | dose: 400.0 mg/kg/injection, schedule: Q04DX002 (ip), vehicle: saline with Tween-80 95 % of control

CC1(C)N=C(N)N=C(N)N1c1cccc(OCCOc2cccc([N+](=O)[O-])c2)c1
inactive: dose: 5.0 mg/kg/injection, schedule: Q01DX001 (ip), vehicle: saline 105 % of control | dose: 10.0 mg/kg/injection, schedule: Q01DX001 (ip), vehicle: saline 102 % of control | dose: 20.0 mg/kg/injection, schedule: Q01DX001 (ip), vehicle: saline 103 % of control | dose: 40.0 mg/kg/injection, schedule: Q01DX001 (ip), vehicle: saline 100 % of control | dose: 80.0 mg/kg/injection, schedule: Q01DX001 (ip), vehicle: saline 100 % of control

O=C(c1ccc([N+](=O)[O-])cc1)c1ccccn1
inactive: dose: 100.0 mg/kg/injection, schedule: Q01DX009 (ip), vehicle: Klucel (hydroxypropylcellulose) (HPC) 103 % of control | dose: 100.0 mg/kg/injection, schedule: Q04DX003 (ip), vehicle: Klucel (hydroxypropylcellulose) (HPC) 101 % of control | dose: 200.0 mg/kg/injection, schedule: Q01DX009 (ip), vehicle: Klucel (hydroxypropylcellulose) (HPC) 102 % of control | dose: 200.0 mg/kg/injection, schedule: Q04DX003 (ip), vehicle: Klucel (hydroxypropylcellulose) (HPC) 93 % of control | dose: 400.0 mg/kg/injection, schedule: Q01DX009 (ip), vehicle: Klucel (hydroxypropylcellulose) (HPC) 115 % of control | dose: 400.0 mg/kg/injection, schedule: Q04DX003 (ip), vehicle: Klucel (hydroxypropylcellulose) (HPC) 92 % of control

CCN(CC)COC(C)=O
inactive: [1] 103 % of control | [2] 106 % of control | [3] 106 % of control

c1ccc([P+](Cc2cccc3c2Cc2ccccc2-3)(c2ccccc2)c2ccccc2)cc1
inactive: dose: 15.0 mg/kg/injection, schedule: Q01DX001 (ip), vehicle: carboxymethylcellulose (CMC) 104 % of control

S=C=NCC(Br)CBr (stereo not given)
inactive: dose: 6.25 mg/kg/injection, schedule: Q01DX009 (ip), vehicle: Klucel (hydroxypropylcellulose) (HPC) 104 % of control | dose: 12.5 mg/kg/injection, schedule: Q01DX009 (ip), vehicle: Klucel (hydroxypropylcellulose) (HPC) 103 % of control | [4] 95 % of control | dose: 25.0 mg/kg/injection, schedule: Q01DX009 (ip), vehicle: Klucel (hydroxypropylcellulose) (HPC) 87 % of control | [5] 105 % of control

CC(CCc1ccccn1)C(=O)c1ccccc1 (stereo not given)
inactive: dose: 222.0 mg/kg/injection, schedule: Q01DX Z (ip), vehicle: methylcellulose (MC) 93 % of control | dose: 333.0 mg/kg/injection, schedule: Q01DX Z (ip), vehicle: methylcellulose (MC) 98 % of control | dose: 500.0 mg/kg/injection, schedule: Q01DX Z (ip), vehicle: methylcellulose (MC) 94 % of control

Nc1nc(=O)n(C2OC(CO)C(O)C2O)c2ccccc12 (stereo not given)
inactive: [1] 101 % of control | [2] 101 % of control | [3] 101 % of control

O=C(NC1CCCCC1)NC1CCCCC1
inactive: dose: 100.0 mg/kg/injection, schedule: Q01DX009 (ip), vehicle: saline with Tween-80 95 % of control | dose: 200.0 mg/kg/injection, schedule: Q01DX009 (ip), vehicle: saline with Tween-80 88 % of control | dose: 400.0 mg/kg/injection, schedule: Q01DX009 (ip), vehicle: saline with Tween-80 87 % of control

Cc1nnnn1C12CC3CC(CC(C3)C1)C2
inactive: dose: 18.8 mg/kg/injection, schedule: Q01DX001 (ip), vehicle: saline 110 % of control | dose: 37.5 mg/kg/injection, schedule: Q01DX001 (ip), vehicle: saline 100 % of control | [6] 105 % of control

O=C1CCCc2[nH]c(=O)ccc21
inactive: [1] 101 % of control | [2] 94 % of control | [3] 96 % of control

CCOC(=N)CCl
inactive: dose: 50.0 mg/kg/injection, schedule: Q04DX003 (ip), vehicle: saline 101 % of control | dose: 100.0 mg/kg/injection, schedule: Q04DX003 (ip), vehicle: saline 95 % of control

Cc1cc([N+](=O)[O-])cc(C)c1N=CN(C)C
inactive: dose: 50.0 mg/kg/injection, schedule: Q01DX001 (ip), vehicle: saline 107 % of control | [1] 105 % of control | [2] 122 % of control | [3] 104 % of control

CC1CC(C)OP(Oc2ccccc2)O1 (stereo not given)
inactive: [1] 110 % of control | [2] 96 % of control | [3] 98 % of control

c1ccc2c3csc4ccccc4c-3nc2c1
inactive: dose: 6.25 mg/kg/injection, schedule: Q01DX009 (ip), vehicle: saline 97 % of control | dose: 12.5 mg/kg/injection, schedule: Q01DX009 (ip), vehicle: saline 101 % of control | [4] 94 % of control | dose: 25.0 mg/kg/injection, schedule: Q01DX009 (ip), vehicle: saline 103 % of control | [5] 94 % of control | dose: 35.0 mg/kg/injection, schedule: Q01DX009 (ip), vehicle: Klucel (hydroxypropylcellulose) (HPC) 91 % of control

Cc1csc[n+]1C1CCCCC1
inactive: [6] 100 % of control

c1ccc(CCN2CCN(CCc3ccccn3)CC2)nc1
inactive: [1] 98 % of control

BrCc1ccc(-c2ccccc2)cc1
inactive: dose: 5.0 mg/kg/injection, schedule: Q01DX009 (ip), vehicle: Klucel (hydroxypropylcellulose) (HPC) 96 % of control | dose: 5.0 mg/kg/injection, schedule: Q04DX003 (ip), vehicle: Klucel (hydroxypropylcellulose) (HPC) 92 % of control | dose: 10.0 mg/kg/injection, schedule: Q01DX009 (ip), vehicle: Klucel (hydroxypropylcellulose) (HPC) 93 % of control | dose: 10.0 mg/kg/injection, schedule: Q04DX003 (ip), vehicle: Klucel (hydroxypropylcellulose) (HPC) 97 % of control | dose: 20.0 mg/kg/injection, schedule: Q01DX009 (ip), vehicle: Klucel (hydroxypropylcellulose) (HPC) 98 % of control | dose: 20.0 mg/kg/injection, schedule: Q04DX003 (ip), vehicle: Klucel (hydroxypropylcellulose) (HPC) 93 % of control

NCCCS
inactive: [6] 96 % of control | dose: 150.0 mg/kg/injection, schedule: Q01DX001 (ip), vehicle: saline 96 % of control
